Data as given in patent US12391675B2, “NLRP3 modulators” (INNATE TUMOR IMMUNITY, INC., priority 2019, dated 2025).
pEC50: −log10 of the molar value.

Target: T1, NLRP3 (Homo sapiens, UniProt Q96P20)
T1 construct: host or cells: PMA-differentiated THP-1 cells
Experiment: Measurement of IL-1β production in PMA-differentiated THP-1 cells (NLRP3 hIL1B EC50)
Type: cell-based
Experimental: Measurement of IL-1β Production in PMA-Differentiated THP-1 Cells
THP-1 cells were purchased from the American Type Culture Collection and sub-cultured according to instructions from the supplier. Prior to experiments, cells were cultured in RPMI 1640 containing 10% heat inactivated FBS, penicillin (100 units/ml) and streptomycin (100 μg/ml), and maintained in log phase prior to experimental setup. Prior to the experiment THP-1 were treated with PMA (Phorbol 12-myristate 13-acetate) (10 μg/ml) for 24 hours. The day of the experiment the media was removed and attaching cells were treated with trypsin for 2 minutes, cells were then collected, washed with PBS (phosphate buffer saline), spin down, resuspended in 2% heat inactivated FBS with RPMI at a concentration of 1×10^6 cells/ml, and 100 μl was plated in a 96 well plate. Compounds were dissolved in dimethyl sulfoxide (DMSO) and added to the culture medium to achieve desired concentration (e.g. 100, 30, 10, 3, 1, 0.3 or 0.1 μM). Cells were incubated with compounds for 4 hours. Cell free supernatant was collected and the production of IL-1β was evaluated by ELISA. A vehicle only control was run concurrently with each experiment. Final DMSO concentration was 1%.
Measurement of IL-1β Production in PMA-Differentiated THP-1 Cells (Alternative Procedure)
THP-1 cells were purchased from the American Type Culture Collection and sub-cultured according to instructions from the supplier. Prior to experiments, cells were cultured in RPMI 1640 containing 10% heat inactivated FBS, penicillin (100 units/ml), streptomycin (100 μg/ml), HEPES (10 mM) and sodium pyruvate (1 mM) and maintained in log phase prior to experimental setup. Prior to the experiment, THP-1 cells were treated with PMA (Phorbol 12-myristate 13-acetate) (20 μg/ml) overnight. The day of the experiment, the media was removed and attached cells were treated with trypsin for 2 minutes, cells were then collected, washed with PBS (phosphate buffer saline), pelleted by centrifugation and resuspended in 2% heat inactivated FBS with RPMI at a concentration of 50,000 cells/well in a 384 well plate. Cell free supernatant was collected and the production of IL-1β was evaluated by ELISA. Compounds were dissolved in dimethyl sulfoxide (DMSO) and added to the culture medium to achieve desired concentration (e.g. 100, 30, 10, 3, 1, 0.3 or 0.1 μM). Cells were incubated with compounds for 2 hours. A vehicle only control was run concurrently with each experiment. Final DMSO concentration was 1%.
Measurement of IL-1β Production—hTRF Protocol (Second Alternative Procedure)
Serial dilutions of compounds in DMSO were added to low volume 384 well plates at 100 nl/well using an ECHO 550 acoustic dispenser (Labcyte) to achieve final starting concentration of 10 μM in assay.
THP-1 cells in RPMI (Gibco, 11875) media with 10% FBS at a density of 1×10^6 cell/ml in a T175 flask were treated with a final concentration of phorbol 12-myristate 13-acetate (PMA) (Sigma, P1585) of 50 ng/ml overnight at 37° C. at 5% CO2 for differentiation. Cells were harvested the next day after rinsing well wth dPBS using 0.5% trypsin. A cell solution was prepared of 1×10^6 cells/ml for 50,000 cells in 50 μl/well in RPMI media with 2% FBS. Cells were plated using a multichannel pipette onto the compound dilutions in Greiner, 384 well, black clear bottom tissue culture treated plates (781090). The plates were incubated in 37° C. incubator at 5% CO2 for 2 hours.
After the 2 hour incubation, the cell plates were spun in the centrifuge for 5 minutes at 1200 rpm. Using the Felix (CyBio), 8 μl of the supernatant was transferred to 384 well, low volume, white proxy plates. (Perkin Elmer, 6008230). A human IL1beta hTRF kit was used to analyze the supernatant (CISBIO, 62HIL1BPEG). The kit instructions were followed for preparing the IL1Beta standard curve and then the antibodies from the kit were diluted 1:40 rather than 1:20 as kit instructed. […]

T1 sequence (Q96P20 whole entry): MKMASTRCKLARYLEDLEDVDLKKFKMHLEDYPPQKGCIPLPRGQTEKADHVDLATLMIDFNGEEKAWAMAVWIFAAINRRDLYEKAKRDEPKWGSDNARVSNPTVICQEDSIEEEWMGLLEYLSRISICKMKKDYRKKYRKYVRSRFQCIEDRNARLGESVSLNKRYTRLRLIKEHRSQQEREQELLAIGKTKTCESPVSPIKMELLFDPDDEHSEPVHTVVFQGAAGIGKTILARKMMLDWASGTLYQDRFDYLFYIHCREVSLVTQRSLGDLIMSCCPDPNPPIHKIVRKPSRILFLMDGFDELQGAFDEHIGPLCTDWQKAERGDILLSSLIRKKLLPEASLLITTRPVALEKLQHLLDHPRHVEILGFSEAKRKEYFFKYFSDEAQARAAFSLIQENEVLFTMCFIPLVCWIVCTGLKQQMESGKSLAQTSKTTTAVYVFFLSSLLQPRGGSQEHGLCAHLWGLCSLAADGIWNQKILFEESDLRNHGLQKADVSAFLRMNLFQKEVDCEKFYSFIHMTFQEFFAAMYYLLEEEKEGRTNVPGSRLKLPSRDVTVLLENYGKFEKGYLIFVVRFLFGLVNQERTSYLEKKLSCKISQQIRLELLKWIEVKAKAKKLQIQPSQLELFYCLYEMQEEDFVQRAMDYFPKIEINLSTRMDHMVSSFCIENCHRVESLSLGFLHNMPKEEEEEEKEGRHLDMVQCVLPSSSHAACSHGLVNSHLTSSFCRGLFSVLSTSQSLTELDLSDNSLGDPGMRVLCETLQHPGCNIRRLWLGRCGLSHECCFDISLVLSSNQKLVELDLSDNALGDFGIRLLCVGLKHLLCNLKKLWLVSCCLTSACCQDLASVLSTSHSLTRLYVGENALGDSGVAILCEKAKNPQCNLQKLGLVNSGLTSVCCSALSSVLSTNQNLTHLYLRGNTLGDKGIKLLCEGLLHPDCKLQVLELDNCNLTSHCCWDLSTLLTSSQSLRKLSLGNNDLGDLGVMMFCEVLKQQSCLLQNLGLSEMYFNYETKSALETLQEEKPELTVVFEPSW

## CCN1CCC2(CCN(c3nc(N)nc4cc(-c5cc[nH]n5)ccc34)C2)C1 (stereo not drawn) [Example 38]
  pEC50: 5.59

## Nc1nc(N[C@H]2CC3CC2[C@@H](O)C3)c2ccc(-c3ccn[nH]3)cc2n1 (mixture of isomers) [Example 40, rac-(2S,6S)-6-((2-amino-7-(1H-pyrazol-5-yl)quinazolin-4-yl)amino)bicyclo[2.2.1]heptan-2-ol]
  pEC50: 6.66

## Nc1nc(N2CC3CC2CO3)c2ccc(-c3cc[nH]n3)cc2n1 (racemic) [Example 9, rac-4-(2-oxa-5-azabicyclo[2.2.1]heptan-5-yl)-7-(1H-pyrazol-3-yl)quinazolin-2-amine]
  pEC50: 6.17

## Nc1cc(N2CC3CCC(C2)O3)c2ccc(-c3ccn[nH]3)cc2n1 [Example 23]
  pEC50: 6.13

## Nc1cc(NC2CC3(CC(O)C3)C2)c2ccc(-c3ccn[nH]3)cc2n1 (single isomer, unassigned) [Example 26B, (Ra)-6-(2-amino-7-(1H-pyrazol-5-yl)quinolin-4-ylamino)spiro[3.3]heptan-2-ol]
  pEC50: 6.60

## Nc1cc(NCC23CCC(CC2)OC3)c2ccc(-c3cc[nH]n3)cc2n1 [Example 48, N4-((2-oxabicyclo[2.2.2]octan-4-yl)methyl)-7-(1H-pyrazol-3-yl)quinoline-2,4-diamine]
  pEC50: 6.24

## Nc1cc(N[C@@H]2C[C@@H]3CC[C@H]2O3)c2ccc(-c3ccn[nH]3)cc2n1 (racemic) [Example 30, rac-N4-((1R,2R,4S)-7-oxabicyclo[2.2.1]heptan-2-yl)-7-(1H-pyrazol-5-yl)quinoline-2,4-diamine]
  pEC50: 6.19

## Nc1nc(NCC23CC(CO)(C2)C3)c2ccc(-c3ccn[nH]3)cc2n1 [Example 34, (3-(((2-amino-7-(1H-pyrazol-5-yl)quinazolin-4-yl)amino)methyl)bicyclo[1.1.1]pentan-1-yl)methanol]
  pEC50: 5.40

## Nc1cc(N2C3CCC2COC3)c2ncc(-c3cc[nH]n3)cc2n1 [Example 24, 4-(3-oxa-8-azabicyclo[3.2.1]octan-8-yl)-7-(1H-pyrazol-3-yl)-1,5-naphthyridin-2-amine]
  pEC50: 6.05

## Nc1nc(N[C@H]2C[C@@H]3C[C@H]2[C@@H](O)C3)c2ccc(-c3ccn[nH]3)cc2n1 (racemic) [Example 44, rac-(1R,2S,4S,6S)-6-((2-amino-7-(1H-pyrazol-5-yl)quinazolin-4-yl)amino)bicyclo[2.2.1]heptan-2-ol]
  pEC50: 5.63

## Nc1nc(N[C@H]2C[C@@H]3C[C@H]2[C@@H](O)C3)c2ccc(-c3ccn[nH]3)cc2n1 (single isomer, unassigned) [Example 45B]
  pEC50: 5.52

## Nc1cc(NCC23CC(CO)(C2)C3)c2ccc(-c3ccn[nH]3)cc2n1 [Example 52, (3-(((2-amino-7-(1H-pyrazol-5-yl)quinolin-4-yl)amino)methyl)bicyclo[1.1.1]pentan-1-yl)methanol]
  pEC50: 6.01

## Nc1cc(N[C@H]2[C@@H]3COC[C@@H]32)c2ccc(-c3ccn[nH]3)cc2n1 [Example 20]
  pEC50: 6.96

## Nc1nc(N2C3CCC2COC3)c2ccc(-c3cc[nH]n3)cc2n1 [Example 12]
  pEC50: 6.19

## Nc1nc(N[C@H]2C[C@H]3O[C@@H]2C[C@@H]3O)c2ccc(-c3ccn[nH]3)cc2n1 (racemic) [Example 31A, rac-(1R,2S,4R,5S)-5-((2-amino-7-(1H-pyrazol-5-yl)quinazolin-4-yl)amino)-7-oxabicyclo[2.2.1]heptan-2-ol]
  pEC50: 5.92

## Nc1nc(N[C@@H]2C[C@H]3C[C@@H](O)C[C@H]3C2)c2ccc(-c3ccn[nH]3)cc2n1 [Example 2, (2r,3aR,5r,6aS)-5-((2-amino-7-(1H-pyrazol-5-yl)quinazolin-4-yl)amino)octahydropentalen-2-ol]
  pEC50: 6.22

## Nc1nc(NC2CC3CC(O)C2C3)c2ccc(-c3ccn[nH]3)cc2n1 (single isomer, unassigned) [Example 41A]
  pEC50: 6.80

## Nc1nc(N[C@@H]2[C@@H]3COC[C@@H]32)c2ccc(-c3ccn[nH]3)cc2n1 [Example 6]
  pEC50: 6.51

## Nc1nc(N[C@@H]2C[C@H]3C[C@H](O)[C@@H]2O3)c2ccc(-c3ccn[nH]3)cc2n1 (racemic) [Example 31B, rac-(1R,2S,4S,6R)-6-((2-amino-7-(1H-pyrazol-5-yl)quinazolin-4-yl)amino)-7-oxabicyclo[2.2.1]heptan-2-ol]
  pEC50: 5.73

## Nc1nc(NC2CC23CC3)c2ccc(-c3cc[nH]n3)cc2n1 (single isomer, unassigned) [Example 36B]
  pEC50: 6.89

## Nc1cc(N2C3CCC2COC3)c2ccc(-c3ccn[nH]3)cc2n1 [Example 22]
  pEC50: 5.70

## Nc1nc(NC2C3CCC(C3)C2CO)c2ccc(-c3ccn[nH]3)cc2n1 (stereo not drawn) [Example 5]
  pEC50: 6.09

## Nc1nc(N[C@@H]2C[C@H]3CC[C@@H]2O3)c2ccc(-c3ccn[nH]3)cc2n1 (racemic) [Example 1, rac-N4-((1R,2S,4S)-7-oxabicyclo[2.2.1]heptan-2-yl)-7-(1H-pyrazol-5-yl)quinazoline-2,4-diamine]
  pEC50: 6.92

## Nc1nc(N[C@H]2C[C@@H]3C[C@H]2C[C@H]3O)c2ccc(-c3ccn[nH]3)cc2n1 (single isomer, unassigned) [Example 43A]
  pEC50: 5.79

## Nc1cc(NC23CC(C2)C3)c2ccc(-c3ccn[nH]3)cc2n1 [Example 19]
  pEC50: 6.49

## CC(C)(C)OC(=O)N1CCC2(CC1)CC2Nc1nc(N)nc2cc(-c3cc[nH]n3)ccc12 (racemic) [Example 27, (rac)-tert-butyl 1-((2-amino-7-(1H-pyrazol-3-yl)quinazolin-4-yl)amino)-6-azaspiro[2.5]octane-6-carboxylate]
  pEC50: 6.41

## Nc1cc(OCC23CCC(CC2)OC3)c2ccc(-c3cc[nH]n3)cc2n1 [Example 47, 4-((2-oxabicyclo[2.2.2]octan-4-yl)methoxy)-7-(1H-pyrazol-3-yl)quinolin-2-amine]
  pEC50: 6.49

## Nc1cc(N[C@H]2C3CCC(C3)[C@H]2CO)c2ccc(-c3ccn[nH]3)cc2n1 (single isomer, unassigned) [Example 18]
  pEC50: 5.52

## Nc1cc(N[C@@H]2C[C@H]3C[C@@H](O)C[C@H]3C2)c2ccc(-c3ccn[nH]3)cc2n1 [Example 14, (2r,3aR,5r,6aS)-5-((2-amino-7-(1H-pyrazol-5-yl)quinolin-4-yl)amino)octahydropentalen-2-ol]
  pEC50: 6.19

## Nc1nc(NC23CC(C2)C3)c2ccc(-c3cc[nH]n3)cc2n1 [Example 13]
  pEC50: 6.70

## Nc1cc(NC2CC3(CC(O)C3)C2)c2ccc(-c3ccn[nH]3)cc2n1 (single isomer, unassigned) [Example 26A, (Sa)-6-(2-amino-7-(1H-pyrazol-5-yl)quinolin-4-ylamino)spiro[3.3]heptan-2-ol]
  pEC50: 7.52

## Nc1nc(N[C@H]2C[C@@H]3C[C@H]2C[C@H]3O)c2ccc(-c3ccn[nH]3)cc2n1 (racemic) [Example 42]
  pEC50: 6.13

## Nc1cc(NCC23CCC(CC2)OC3)c2ccc(-c3ccsc3)cc2n1 [Example 49, N4-((2-oxabicyclo[2.2.2]octan-4-yl)methyl)-7-(thiophen-3-yl)quinoline-2,4-diamine]
  pEC50: 6.27

## Nc1nc(NC23CC4CC(CC(O)(C4)C2)C3)c2ccc(-c3cc[nH]n3)cc2n1 [Example 11, (1s,3r,5R,7S)-3-((2-Amino-7-(1H-pyrazol-3-yl)quinazolin-4-yl)amino)adamantan-1-ol]
  pEC50: 5.68

## Nc1cc(NC2CC3(CC(O)C3)C2)c2ccc(-c3ccn[nH]3)cc2n1 (stereo not drawn) [Example 21]
  pEC50: 6.06

## Nc1cc(N[C@H]2[C@@H]3CC[C@@H](C3)[C@H]2CO)c2ccc(-c3ccn[nH]3)cc2n1 (racemic) [Example 17, rac-((1R,2S,3R,4S)-3-((2-amino-7-(1H-pyrazol-5-yl)quinolin-4-yl)amino)bicyclo[2.2.1]heptan-2-yl)methanol]
  pEC50: 5.78
